Source: US20240327393A1 (SIRONAX LTD., priority 2021, published 2024)

System: HT-1080 (ATCC, CCL-121) cells
Assay: HT-1080 cell viability assay with ferroptosis inducer RSL3 (Cell Titer-Glo)
Format: cell-based
Conditions: Homo sapiens; HT-1080 cells treated with RSL3; 3-fold, 10-point dilution, 1.1 μM highest concentration; Table 2; read-out: EC50 (nM), ferroptosis inhibitory activity
Method: Example 2. Determination of EC50 Values in HT-1080 Cell Viability Assay
HT-1080 (ATCC, CCL-121) cells (6000 in 100 μl) were seeded in 96-well plates (Corning) and cultured in a 37° C. incubator with a humidified atmosphere of 5% CO2 for overnight. Cells were then treated with ferroptosis inducer RSL3 (TargetMol) and a 3-fold, 10-point serial dilution series of compounds with 1.1 μM as the highest concentration, […]. Cell viability was assessed using the Cell Titer-Glo Kit (Promega). The luminescence intensity was measured with a microplate reader (Envision, PerkinElmer), and cell viability was calculated by normalizing the data to untreated controls. The EC50 values of the compounds (e.g., Compounds 1-659) were calculated in GraphPad Prism (GraphPad Software, Inc., San Diego, CA, USA). The curves were fitted using a non-linear regression model with a sigmoidal dose response.

| SMILES | EC50 [nM] |
| --- | --- |
| Cc1cc(Nc2ccc3c(c2)OCC(=O)N3)cnc1N1C[C@H](C)O[C@@H](C)C1 (stereo in doubt) [Compound 152, 7-((6-(2,6-dimethylmorpholino)-5-methylpyridin-3-yl)amino)-2H-benzo[b][1,4]oxazin-3(4H)-one] | 100 to 1000 |
| CC1CCN(c2ccc(Nc3ccc4c(c3)OCC(=O)N4C)cc2)CC1 [Compound 1, 4-methyl-7-((4-(4-methylpiperidin-1-yl)phenyl)amino)-2H-benzo[b][1,4]oxazin-3(4H)-one] | 0.1 to 100 |
| CN1C(=O)COc2cc(Nc3ccc(N4CCC(C(F)(F)F)CC4)cc3)ccc21 [Compound 2, 4-methyl-7-((4-(4-(trifluoromethyl)piperidin-1-yl)phenyl)amino)-2H-benzo[b][1,4]oxazin-3(4H)-one] | 0.1 to 100 |
| CN1C(=O)CCOc2cc(Nc3ccc(N4CCC(C(F)(F)F)CC4)cc3)ccc21 [Compound 3, 5-methyl-8-((4-(4-(trifluoromethyl)piperidin-1-yl)phenyl)amino)-2,3-dihydrobenzo[b][1,4]oxazepin-4(5H)-one] | 0.1 to 100 |
| CCCCCN(CCCCOC)c1ccc(Nc2ccc3c(c2)OCC(=O)N3C)cc1 [Compound 4, 7-((4-((4-methoxybutyl)(pentyl)amino)phenyl)amino)-4-methyl-2H-benzo[b][1,4]oxazin-3(4H)-one] | 0.1 to 100 |
| CCCCOc1ccc(Nc2ccc3c(c2)OCC(=O)N3C)cc1 [Compound 5, 7-((4-butoxyphenyl)amino)-4-methyl-2H-benzo[b][1,4]oxazin-3(4H)-one] | 0.1 to 100 |
| CCCCCc1ccc(Nc2ccc3c(c2)OCC(=O)N3C)cc1 [Compound 6, 4-methyl-7-((4-pentylphenyl)amino)-2H-benzo[b][1,4]oxazin-3(4H)-one] | 0.1 to 100 |
| CN1C(=O)COc2cc(Nc3ccc(OC4CCCCC4)cc3)ccc21 [Compound 7, 7-((4-(cyclohexyloxy)phenyl)amino)-4-methyl-2H-benzo[b][1,4]oxazin-3(4H)-one] | 0.1 to 100 |
| CCCOc1cc(Nc2ccc3c(c2)OCC(=O)N3C)ccc1N1CCC(C(F)(F)F)CC1 [Compound 8, 4-methyl-7-((3-propoxy-4-(4-(trifluoromethyl)piperidin-1-yl)phenyl)amino)-2H-benzo[b][1,4]oxazin-3(4H)-one] | 0.1 to 100 |
| COC1(C(F)(F)F)CCN(c2ccc(Nc3ccc4c(c3)OCC(=O)N4C)cc2)CC1 [Compound 9, 7-((4-(4-methoxy-4-(trifluoromethyl)piperidin-1-yl)phenyl)amino)-4-methyl-2H-benzo[b][1,4]oxazin-3(4H)-one] | 0.1 to 100 |
| COCCCN1C(=O)COc2cc(Nc3ccc(N4CCC(C(F)(F)F)CC4)cc3)ccc21 [Compound 10, 4-(3-methoxypropyl)-7-((4-(4-(trifluoromethyl)piperidin-1-yl)phenyl)amino)-2H-benzo[b][1,4]oxazin-3(4H)-one] | 0.1 to 100 |
| COCCN1C(=O)COc2cc(Nc3ccc(N4CCC(C(F)(F)F)CC4)cc3)ccc21 [Compound 11, 4-(2-methoxyethyl)-7-((4-(4-(trifluoromethyl)piperidin-1-yl)phenyl)amino)-2H-benzo[b][1,4]oxazin-3(4H)-one] | 0.1 to 100 |
| CCCCOc1ccc(Nc2ccc3c(c2)OCC(=O)N3C)cn1 [Compound 12, 7-((6-butoxypyridin-3-yl)amino)-4-methyl-2H-benzo[b][1,4]oxazin-3(4H)-one] | 0.1 to 100 |
| CN1C(=O)COc2cc(Nc3ccc(OCCCF)cc3)ccc21 [Compound 13, 7-((4-(3-fluoropropoxy)phenyl)amino)-4-methyl-2H-benzo[b][1,4]oxazin-3(4H)-one] | 0.1 to 100 |
| NC(=O)CN1C(=O)COc2cc(Nc3ccc(N4CCC(C(F)(F)F)CC4)cc3)ccc21 [Compound 14, 2-(3-oxo-7-((4-(4-(trifluoromethyl)piperidin-1-yl)phenyl)amino)-2,3-dihydro-4H-benzo[b][1,4]oxazin-4-yl)acetamide] | 0.1 to 100 |
| NC(=O)CCN1C(=O)COc2cc(Nc3ccc(N4CCC(C(F)(F)F)CC4)cc3)ccc21 [Compound 15, 3-(3-oxo-7-((4-(4-(trifluoromethyl)piperidin-1-yl)phenyl)amino)-2,3-dihydro-4H-benzo[b][1,4]oxazin-4-yl)propanamide] | 0.1 to 100 |
| CCN1C(=O)COc2cc(Nc3ccc(N4CCC(C(F)(F)F)CC4)cc3)ccc21 [Compound 16, 4-ethyl-7-((4-(4-(trifluoromethyl)piperidin-1-yl)phenyl)amino)-2H-benzo[b][1,4]oxazin-3(4H)-one] | 0.1 to 100 |
| CN1C(=O)COc2cc(Nc3ccc(N4CCC(C(F)(F)F)CC4)nc3)ccc21 [Compound 17, 4-methyl-7-((6-(4-(trifluoromethyl)piperidin-1-yl)pyridin-3-yl)amino)-2H-benzo[b][1,4]oxazin-3(4H)-one] | 0.1 to 100 |
| CC(C)(C)C(=O)N1CCOc2cc(Nc3ccc(N4CCC(C(F)(F)F)CC4)cc3)ccc21 [Compound 18, 2,2-dimethyl-1-(7-((4-(4-(trifluoromethyl)piperidin-1-yl)phenyl)amino)-2,3-dihydro-4H-benzo[b][1,4]oxazin-4-yl)propan-1-one] | 0.1 to 100 |
| CNc1cc(Nc2ccc3c(c2)OCC(=O)N3C)ccc1N1CC(C)OC(C)C1 (stereo not shown) [Compound 19, 7-((4-(2,6-dimethylmorpholino)-3-(methylamino)phenyl)amino)-4-methyl-2H-benzo[b][1,4]oxazin-3(4H)-one] | 0.1 to 100 |
| CC1CN(c2ccc(Nc3ccc4c(c3)OCC(=O)N4C)cc2N(C)C)CC(C)O1 (stereo not shown) [Compound 20, 7-((3-(dimethylamino)-4-(2,6-dimethylmorpholino)phenyl)amino)-4-methyl-2H-benzo[b][1,4]oxazin-3(4H)-one] | 0.1 to 100 |
| CN1C(=O)COc2cc(Nc3ccc(N4CC5(CCC5)C4)cc3)ccc21 [Compound 21, 7-((4-(2-azaspiro[3.3]heptan-2-yl)phenyl)amino)-4-methyl-2H-benzo[b][1,4]oxazin-3(4H)-one] | 0.1 to 100 |
| CCN(CC)c1ccc(Nc2ccc3c(c2)OCC(=O)N3C)cc1 [Compound 22, 7-((4-(diethylamino)phenyl)amino)-4-methyl-2H-benzo[b][1,4]oxazin-3(4H)-one] | 0.1 to 100 |
| CN1C(=O)COc2cc(Nc3ccc(N4CCC(CF)CC4)cc3)ccc21 [Compound 23, 7-((4-(4-(fluoromethyl)piperidin-1-yl)phenyl)amino)-4-methyl-2H-benz o[b][1,4]oxazin-3(4H)-one] | 0.1 to 100 |
| CCN1C(=O)COc2cc(Nc3ccc(N4CCC(C(F)(F)F)CC4)nc3)ccc21 [Compound 24, 4-ethyl-7-((6-(4-(trifluoromethyl)piperidin-1-yl)pyridin-3-yl)amino)-2H-benzo[b][1,4]oxazin-3(4H)-one] | 0.1 to 100 |
| CC(C)(C)NC(=O)N1CCOc2cc(Nc3ccc(N4CCC(C(F)(F)F)CC4)cc3)ccc21 [Compound 25] | 0.1 to 100 |
| Cc1nc(N2CCC(C(F)(F)F)CC2)ccc1Nc1ccc2c(c1)OCC(=O)N2C [Compound 26, 4-methyl-7-((2-methyl-6-(4-(trifluoromethyl)piperidin-1-yl)pyridin-3-yl)amino)-2H-benzo[b][1,4]oxazin-3(4H)-one] | 0.1 to 100 |
| CN1C(=O)COc2cc(Nc3cnc(N4CCC(C(F)(F)F)CC4)c(F)c3)ccc21 [Compound 27, 7-((5-fluoro-6-(4-(trifluoromethyl)piperidin-1-yl)pyridin-3-yl)amino)-4-methyl-2H-benzo[b][1,4]oxazin-3(4H)-one] | 0.1 to 100 |
